From US20200392150A1, “Diaryl-B-Lactam Compound and Preparation Method and Pharmaceutical Use Thereof” (Fudan University, priority 2016, published 2020)
Read-outs that look alike come from different tables or passages of the source.

What was measured:
Assay in all cases: In vitro cell growth inhibition assay (MTT)
Format in all cases: cell-based, human
A2780 = conditions: read-out: IC50 A2780
Experimental: (§1) 5000 tumor cells per well were seeded into 96-well plate and allowed to adhere overnight. Cells were treated with various concentrations of tested compounds or DMSO (0.2%, as negative control) for 48 h. Then, the medium along with tested compounds or DMSO was discarded and […] per well MTT containing medium (0.5 mg/mL) was added. After incubation at 37° C. for 4 h, the MTT-containing medium was replaced by DMSO (150 μL per well) to dissolve the formazan crystals. Absorbance of the resulting solution was measured by microplate reader (Biotech ELx800) at 540 nm wavelength. Growth inhibition rates were calculated with the absorbance. Half maximal inhibitory concentration (IC50) of each compound was calculated using GraphPad Prism, version 6.0.

Hela = conditions: 48 h, read-out: IC50 Hela
Experimental: as §1

MDA-MB-231 = conditions: read-out: IC50 MDA-MB-231
Experimental: as §1

SKOV3 = conditions: read-out: IC50 SKOV3
Experimental: as §1

[1] = A2780 human ovarian cancer cell line, 48 h, MTT
[2] = Hela human cervical cancer cell line, MTT
[3] = MDA-MB-231 human breast cancer cell line, 48 h, MTT
[4] = SK-OV-3, SKOV-3 human ovarian cancer cell line, 48 h, MTT

Row | SMILES | IC50 (A2780; [1]) [nM] | IC50 (Hela; [2]) [nM] | IC50 (MDA-MB-231; [3]) [nM] | IC50 (SKOV3; [4]) [nM] | IC50 (A2780; Homo sapiens, A2780, 48 h) [nM] | IC50 (Hela; Homo sapiens, HeLa) [nM] | IC50 (MDA-MB-231; Homo sapiens, MDA-MB-231, 48 h) [nM] | IC50 (SKOV3; Homo sapiens, SK-OV-3, 48 h) [nM]
1 | C=C1C(=O)N(c2cc(OC)c(OC)c(OC)c2)[C@H]1c1ccc(OC)c(OCC(=O)OCC)c1 [Compound 12, (5)-ethyl 2-(2-methoxy-5-(3-methylene-4-oxo-1-(3,4,5-trimethoxyphenyl)azetidin-2-yl)phenoxy)acetate] | > 20000 | > 20000 | > 20000 | > 20000 | – | – | – | –
2 | C=C1C(=O)N(c2cc(OC)c(OC)c(OC)c2)[C@H]1c1ccc(OC)c(OCC(=O)OC(C)(C)C)c1 [Compound 13, (S)-tert-butyl 2-(2-methoxy-5-(3-methylene-4-oxo-1-(3,4,5-trimethoxyphenyl)azetidin-2-yl)phenoxy)acetate] | > 10000 | > 10000 | > 10000 | > 10000 | – | – | – | –
3 | C=C1C(=O)N(c2cc(OC)c(OC)c(OC)c2)[C@H]1c1ccc(OC)c(OCCN(C)C)c1 [Compound 14, (S)-4-(3-(2-(dimethylamino)ethoxy)-4-methoxyphenyl)-3-methylene-1-(3,4,5-trimethoxyphenyl)azetidin-2-one] | – | – | – | – | > 10000 | > 10000 | > 10000 | > 10000
4 | C=C1C(=O)N(c2cc(OC)c(OC)c(OC)c2)[C@H]1c1ccc(OC)c(OCC(N)=O)c1 [Compound 16, (S)-2-(2-methoxy-5-(3-methylene-4-oxo-1-(3,4,5-trimethoxyphenyl)azetidin-2-yl)phenoxy)acetamide] | 316 | 818 | 503 | 698 | – | – | – | –
5 | C=C1C(=O)N(c2cc(OC)c(OC)c(OC)c2)[C@H]1c1ccc(OC)c(OCCCNC(=O)OCc2ccccc2)c1 [Compound 17, (S)-benzyl (3-(2-methoxy-5-(3-methylene-4-oxo-1-(3,4,5-trimethoxyphenyl)azetidin-2-yl)phenoxy)propyl)carbamate] | > 10000 | > 10000 | > 10000 | > 10000 | – | – | – | –
6 | C=C1C(=O)N(c2cc(OC)c(OC)c(OC)c2)[C@H]1c1ccc(OC)c(OC(=O)c2ccccc2OC)c1 [Compound 21, (S)-2-methoxy-5-(3-methylene-4-oxo-1-(3,4,5-trimethoxyphenyl)azetidin-2-yl)phenyl 2-methoxybenzoate] | 201 | 106 | 218 | 155 | – | – | – | –
7 | C=C1C(=O)N(c2cc(OC)c(OC)c(OC)c2)[C@H]1c1ccc(OC)c(OS(=O)(=O)c2ccc(C)cc2)c1 [Compound 27, (S)-2-methoxy-5-(3-methylene-4-oxo-1-(3,4,5-trimethoxyphenyl)azetidin-2-yl)phenyl 4-methylbenzenesulfonate] | 6670 | 17800 | 12800 | 12100 | – | – | – | –
8 | C=C1C(=O)N(c2cc(OC)c(OC)c(OC)c2)[C@H]1c1ccc(OC)c(OS(=O)(=O)c2ccc(NC(C)=O)cc2)c1 [Compound 30, (S)-2-methoxy-5-(3-methylene-4-oxo-1-(3,4,5-trimethoxyphenyl)azetidin-2-yl)phenyl 4-acetamidobenzenesulfonate] | 12200 | 15900 | 15800 | 12000 | – | – | – | –
9 | C=C1C(=O)N(c2cc(OC)c(OC)c(OC)c2)[C@H]1c1ccc(OC)c(OS(=O)(=O)Cc2ccccc2)c1 [Compound 32, (S)-2-methoxy-5-(3-methylene-4-oxo-1-(3,4,5-trimethoxyphenyl)azetidin-2-yl)phenyl phenylmethanesulfonate] | 7340 | > 20000 | > 20000 | 8660 | – | – | – | –
10 | C=C1C(=O)N(c2cc(OC)c(OC)c(OC)c2)[C@H]1c1ccc(OC)c(OS(=O)(=O)c2ccc(OC)c(OC)c2)c1 [Compound 33, (S)-2-methoxy-5-(3-methylene-4-oxo-1-(3,4,5-trimethoxyphenyl)azetidin-2-yl)phenyl 3,4-dimethoxybenzenesulfonate] | 12300 | 12300 | 13400 | 15200 | – | – | – | –
11 | C=C1C(=O)N(c2cc(OC)c(OC)c(OC)c2)[C@H]1c1ccc(OC)c(OC(=O)[C@H](C)NC(=O)OC(C)(C)C)c1 [Compound 35, (S)-2-methoxy-5-((S)-3-methylene-4-oxo-1-(3,4,5-trimethoxyphenyl)azetidin-2-yl)phenyl 2-((tert-butoxycarbonyl)amino)propanoate] | 496 | 106 | 496 | 252 | – | – | – | –
12 | C=C1C(=O)N(c2cc(OC)c(OC)c(OC)c2)[C@H]1c1ccc(OC)c(OC(=O)[C@@H](NC(=O)OC(C)(C)C)C(C)C)c1 [Compound 36, (S)-2-methoxy-5-((S)-3-methylene-4-oxo-1-(3,4,5-trimethoxyphenyl)azetidin-2-yl)phenyl 2-((tert-butoxycarbonyl)amino)-3-methylbutanoate] | 505 | 501 | 506 | 496 | – | – | – | –
13 | C=C1C(=O)N(c2cc(OC)c(OC)c(OC)c2)[C@H]1c1ccc(OC)c(OP(=O)(OCc2ccccc2)OCc2ccccc2)c1 [Compound 37, (S)-dibenzyl (2-methoxy-5-(3-methylene-4-oxo-1-(3,4,5-trimethoxyphenyl)azetidin-2-yl)phenyl) phosphate] | > 20000 | > 20000 | > 20000 | > 20000 | – | – | – | –
14 | C=C1C(=O)N(c2cc(OC)c(OC)c(OC)c2)[C@H]1c1ccc(OC)c(F)c1 [Compound 38, (S)-4-(3-fluoro-4-methoxyphenyl)-3-methylene-1-(3,4,5-trimethoxyphenyl)azetidin-2-one] | 121 | 131 | 111 | 134 | – | – | – | –
15 | C=C1C(=O)N(c2cc(OC)c(OC)c(OC)c2)[C@H]1c1ccc(OC)c(N)c1 [Compound 41, (S)-4-(3-amino-4-methoxyphenyl)-3-methylene-1-(3,4,5-trimethoxyphenyl)azetidin-2-one] | 31 | 32 | 40 | 36 | – | – | – | –
16 | C=C1C(=O)N(c2cc(OC)cc(OC)c2)[C@H]1c1ccc(OC)c(O)c1 [Compound 49, (S)-1-(3,5-dimethoxyphenyl)-4-(3-hydroxy-4-methoxyphenyl)-3-methyleneazetidin-2-one] | 112 | 295 | 125 | 175 | – | – | – | –
17 | C=C1C(=O)N(c2ccc(OC)cc2OC)[C@H]1c1ccc(OC)c(O)c1 [Compound 50, (S)-1-(2,4-dimethoxyphenyl)-4-(3-hydroxy-4-methoxyphenyl)-3-methyleneazetidin-2-one] | 234 | 894 | 291 | 513 | – | – | – | –
18 | COc1ccc([C@H]2/C(=C\C[Si](C)(C)C)C(=O)N2c2cc(OC)c(OC)c(OC)c2)cc1O [Compound 54, (S,E)-4-(3-hydroxy-4-methoxyphenyl)-1-(3,4,5-trimethoxyphenyl)-3-(2-(trimethylsilyl)ethylidene)azetidin-2-one] | > 10000 | > 10000 | > 10000 | > 10000 | – | – | – | –
19 | COc1ccc([C@H]2/C(=C/c3ccccc3)C(=O)N2c2cc(OC)c(OC)c(OC)c2)cc1O [Compound 57, (S,Z)-3-benzylidene-4-(3-hydroxy-4-methoxyphenyl)-1-(3,4,5-trimethoxyphenyl)azetidin-2-one] | 2540 | 4730 | 3160 | 2990 | – | – | – | –
20 | COc1ccc([C@H]2/C(=C/c3ccc(C(C)(C)C)cc3)C(=O)N2c2cc(OC)c(OC)c(OC)c2)cc1O [Compound 58, (S,Z)-3-(4-(tert-butyl)benzylidene)-4-(3-hydroxy-4-methoxyphenyl)-1-(3,4,5-trimethoxyphenyl)azetidin-2-one] | > 20000 | > 20000 | > 20000 | > 20000 | – | – | – | –
21 | COc1ccc([C@H]2[C@@H](CC[Si](C)(C)C)C(=O)N2c2cc(OC)c(OC)c(OC)c2)cc1O [Compound 59, (3R,4R)-4-(3-hydroxy-4-methoxyphenyl)-1-(3,4,5-trimethoxyphenyl)-3-(2-(trimethylsilyl)ethyl)azetidin-2-one] | 7540 | 9140 | 6440 | 5630 | – | – | – | –
22 | COc1ccc([C@H]2[C@H](n3cc(CO)nn3)C(=O)N2c2cc(OC)c(OC)c(OC)c2)cc1O [Compound 61, (3S,4S)-4-(3-hydroxy-4-methoxyphenyl)-3-(4-(hydroxymethyl)-1H-1,2,3-triazol-1-yl)-1-(3,4,5-trimethoxyphenyl)azetidin-2-one] | 15 | 33 | 28 | 83 | – | – | – | –
23 | COc1ccc([C@H]2[C@@H](CN(C)C)C(=O)N2c2cc(OC)c(OC)c(OC)c2)cc1O [Compound 62, (3R,4R)-3-((dimethylamino)methyl)-4-(3-hydroxy-4-methoxyphenyl)-1-(3,4,5-trimethoxyphenyl)azetidin-2-one] | 7720 | > 20000 | > 20000 | > 20000 | – | – | – | –
24 | COc1ccc([C@H]2[C@@H](CNCc3ccccc3)C(=O)N2c2cc(OC)c(OC)c(OC)c2)cc1O [Compound 63, (3R,4R)-3-((benzylamino)methyl)-4-(3-hydroxy-4-methoxyphenyl)-1-(3,4,5-trimethoxyphenyl)azetidin-2-one] | 1020 | 2270 | 1790 | 1670 | – | – | – | –
